Reference: patent publication US11161850B2, “Fused pyrazine derivatives as A2A / A2B inhibitors” (Incyte Corporation, priority 2018, dated 2021)
Where two headings read alike, the source gives them in different places.

What was measured:
Adenosine A2A = Adenosine A2A (Homo sapiens (Human), UniProt P29274); experiment: A2A Tag-Lite HTRF assay; type: binding
Description: Example C. A2A Tag-Lite® HTRF Assay

[1] = target: human adenosine A2B receptor (Homo sapiens (Human), UniProt P29275); experiment: Adenosine A2B Receptor Cyclic AMP GS Assay; type: cell-based; settings: HEK-293 cells expressing human A2B, agonist NECA 12 nM
Procedure: Example B. Adenosine A2B Receptor Cyclic AMP GS Assay
Stably transfected HEK-293 cells expressing the human adenosine A2B receptor (Perkin Elmer) were maintained in MEM culture medium with 10% FBS and 100 μg/mL Geneticin (Life Technologies). 18 to 24 hours prior to assay, geneticin was removed from culture. The cisbio cAMP-GS Dynamic kit utilizing the FRET (Fluorescence Resonance Energy Transfer) technology was used to measure cAMP accumulation in the cells. Compounds of the present disclosure at an appropriate concentration were mixed with 10000 cells/well in white 96 well half area plates (Perkin Elmer) for 30 min at room temperature gently shaking. Agonist, NECA (R&D Technologies) at 12 nM was added to each well for 60 min at room temperature gently shaking. Detection reagents, d2-labeled cAMP (acceptor) and anti-cAMP cryptate (donor) were added to each well for 60 min at rt gently shaking. Plates were read on Pherastar (BMG Labtech), fluorescence ratio 665/620 was calculated and EC50 determination was performed by fitting the curve of percent of control versus the log of the compound concentration using GraphPad Prism.

[2] = Tag-Lite Adenosine A2A labeled cells, fluorescent ligand 12.5 nM, read-out: A2A_Ki
[3] = read-out: A2A_Ki, Tag-Lite Adenosine A2A labeled cells, fluorescent ligand 12.5 nM

Sequence of human adenosine A2B receptor (P29275 whole entry): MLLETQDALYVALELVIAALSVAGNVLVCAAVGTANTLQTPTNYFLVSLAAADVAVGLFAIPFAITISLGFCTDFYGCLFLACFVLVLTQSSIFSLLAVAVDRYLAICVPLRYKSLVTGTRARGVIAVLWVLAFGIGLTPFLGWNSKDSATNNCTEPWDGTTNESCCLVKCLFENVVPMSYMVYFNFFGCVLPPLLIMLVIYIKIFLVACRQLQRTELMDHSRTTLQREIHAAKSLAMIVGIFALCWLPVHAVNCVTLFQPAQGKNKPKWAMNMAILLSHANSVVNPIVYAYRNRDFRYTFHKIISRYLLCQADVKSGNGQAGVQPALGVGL
Sequence of Adenosine A2A (P29274 whole entry): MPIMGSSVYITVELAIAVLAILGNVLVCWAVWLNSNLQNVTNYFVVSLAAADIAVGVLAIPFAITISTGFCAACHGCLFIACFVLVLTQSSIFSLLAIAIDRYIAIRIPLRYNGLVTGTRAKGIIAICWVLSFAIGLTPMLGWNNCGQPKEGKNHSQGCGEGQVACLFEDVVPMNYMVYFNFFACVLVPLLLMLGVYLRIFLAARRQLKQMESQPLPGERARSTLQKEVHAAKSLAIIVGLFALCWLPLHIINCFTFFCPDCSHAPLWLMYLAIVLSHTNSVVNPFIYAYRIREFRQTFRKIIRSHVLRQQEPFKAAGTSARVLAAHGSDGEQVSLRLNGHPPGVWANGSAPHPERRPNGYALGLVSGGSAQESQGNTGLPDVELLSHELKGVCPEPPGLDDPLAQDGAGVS

| Compound | Ki (Adenosine A2A; [2]) | EC50 ([1]; A2B_cAMP_EC50 (nM)) | Ki (Adenosine A2A) | Ki (Adenosine A2A; [3]) | EC50 ([1]; read-out: A2B_cAMP_EC50) |
| --- | --- | --- | --- | --- | --- |
| N#Cc1cccc(-c2nc(N)c3cc(C(=O)N4CCCC4)nn3c2-c2ccncn2)c1 [Example 8, 3-(4-Amino-7-(pyrimidin-4-yl)-2-(pyrrolidine-1-carbonyl)pyrazolo[1,5-a]pyrazin-6-yl)benzonitrile] | < 10 nM | 10 to 100 nM |  |  |  |
| CN1CCN(c2cc(-c3cc4c(N)nc(-c5cccc(C#N)c5)c(-c5ccncc5)n4n3)ccn2)CC1 [Example 26, 3-(4-Amino-2-(2-(4-methylpiperazin-1-yl)pyridin-4-yl)-7-(pyridin-4-yl)pyrazolo[1,5-a]pyrazin-6-yl)benzonitrile] | < 10 nM | 10 to 100 nM |  |  |  |
| N#Cc1cccc(-c2nc(N)c3nc(C(O)c4c(F)cccc4F)nn3c2-c2ccncn2)c1 (single isomer, unassigned) [Example 49, 3-(8-Amino-2-((2,6-difluorophenyl)(hydroxy)methyl)-5-(pyrimidin-4-yl)-[1,2,4]triazolo[1,5-a]pyrazin-6-yl)benzonitrile] |  | < 10 nM | < 10 nM |  |  |
| N#Cc1cccc(-c2nc(N)c3nc(C(O)c4c(F)cccc4F)nn3c2-c2ccc3nncn3c2)c1 (racemic) [Example 104, 3-(5-([1,2,4]triazolo[4,3-a]pyridin-6-yl)-8-amino-2-((2,6-difluorophenyl)(hydroxy)methyl)-[1,2,4]triazolo[1,5-a]pyrazin-6-yl)benzonitrile] | < 10 nM | 10 to 100 nM |  |  |  |
| Cc1nc(C(O)C(F)F)c(-c2c(-c3cccc(C#N)c3)nc(N)c3cc(Cc4ccccn4)nn23)o1 (centres unmarked) [Example 35, 3-(4-Amino-7-(4-(2,2-difluoro-1-hydroxyethyl)-2-methyloxazol-5-yl)-2-(pyridin-2-ylmethyl)pyrazolo[1,5-a]pyrazin-6-yl)benzonitrile] | < 10 nM | < 10 nM |  |  |  |
| N#Cc1cccc(-c2nc(N)c3ncnn3c2-c2ccc(=O)[nH]c2)c1 [Example 15, 3-(8-Amino-5-(6-oxo-1,6-dihydropyridin-3-yl)-[1,2,4]triazolo[1,5-a]pyrazin-6-yl)benzonitrile] | < 10 nM | < 10 nM |  |  |  |
| N#Cc1cccc(-c2nc(N)c3nc(Cc4cccc5ocnc45)nn3c2-c2ccncn2)c1 [Example 63, 3-(8-amino-2-(benzo[d]oxazol-4-ylmethyl)-5-(pyrimidin-4-yl)-[1,2,4]triazolo[1,5-a]pyrazin-6-yl)benzonitrile] | < 10 nM | < 10 nM |  |  |  |
| N#Cc1cccc(-c2nc(N)c3cc(Cc4ccccn4)nn3c2-c2ccncn2)c1 [Example 17, 3-(4-Amino-2-(pyridin-2-ylmethyl)-7-(pyrimidin-4-yl)pyrazolo[1,5-a]pyrazin-6-yl)benzonitrile] | < 10 nM | < 10 nM |  |  |  |
| N#CCCn1cc(-c2cccc(F)c2Cc2nc3c(N)nc(-c4cccc(C#N)c4F)cn3n2)cn1 [Example 117, 3-(8-amino-2-(2-(1-(2-cyanoethyl)-1H-pyrazol-4-yl)-6-fluorobenzyl)-[1,2,4]triazolo[1,5-a]pyrazin-6-yl)-2-fluorobenzonitrile] | < 10 nM | < 10 nM |  |  |  |
| Cn1nc(-c2c(-c3cccc(C#N)c3)nc(N)c3nc(C(N)c4c(F)cccc4F)nn23)ccc1=O (centres unmarked) [Example 81, 3-(8-amino-2-(amino(2,6-difluorophenyl)methyl)-5-(1-methyl-6-oxo-1,6-dihydropyridazin-3-yl)-[1,2,4]triazolo[1,5-a]pyrazin-6-yl)benzonitrile] | < 10 nM | < 10 nM |  |  |  |
| N#Cc1cccc(-c2cn3nc(Cc4c(F)cccc4-c4cnn(CC(=O)N5CC(O)C5)c4)nc3c(N)n2)c1F [Example 118, 3-(8-amino-2-(2-fluoro-6-(1-(2-(3-hydroxyazetidin-1-yl)-2-oxoethyl)-1H-pyrazol-4-yl)benzyl)-[1,2,4]triazolo[1,5-a]pyrazin-6-yl)-2-fluorobenzonitrile] | < 10 nM | < 10 nM |  |  |  |
| N#Cc1cccc(-c2nc(N)c3nc(Cn4cccc5ccnc4-5)nn3c2-c2ccncn2)c1 [Example 33, 3-(2-((7H-pyrrolo[2,3-b]pyridin-7-yl)methyl)-8-amino-5-(pyrimidin-4-yl)-[1,2,4]triazolo[1,5-a]pyrazin-6-yl)benzonitrile] | < 10 nM | < 10 nM |  |  |  |
| [2H]C([2H])([2H])n1nc(-c2c(-c3cccc(C#N)c3)nc(N)c3nc(Cc4ccccn4)nn23)ccc1=O [Example 127, 3-(8-amino-5-(1-(methyl-d3)-6-oxo-1,6-dihydropyridazin-3-yl)-2-(pyridin-2-ylmethyl)-[1,2,4]triazolo[1,5-a]pyrazin-6-yl)benzonitrile] |  | < 10 nM | < 10 nM |  |  |
| Cc1cnccc1-c1c(-c2cccc(C#N)c2)nc(N)c2nc(C(O)c3c(F)cccc3F)nn12 (single isomer, unassigned) [Example 109, 3-(8-amino-2-((2,6-difluorophenyl)(hydroxy)methyl)-5-(3-methylpyridin-4-yl)-[1,2,4]triazolo[1,5-a]pyrazin-6-yl)benzonitrile] |  |  |  | < 10 nM | < 10 nM |
| C[C@@]1(C(=O)O)CCN(Cc2cccc(F)c2Cc2nc3c(N)nc(-c4cccc(C#N)c4)c(-c4ccncn4)n3n2)C1 [Example 65, (R)-1-(2-((8-amino-6-(3-cyanophenyl)-5-(pyrimidin-4-yl)-[1,2,4]triazolo[1,5-a]pyrazin-2-yl)methyl)-3-fluorobenzyl)-3-methylpyrrolidine-3-carboxylic Acid] | < 10 nM | 10 to 100 nM |  |  |  |
| CCn1nccc1-c1c(-c2cccc(C#N)c2)nc(N)c2nc(C(O)c3c(F)cccc3F)nn12 (single isomer, unassigned) [Example 92, 3-(8-amino-2-((2,6-difluorophenyl)(hydroxy)methyl)-5-(1-ethyl-1H-pyrazol-5-yl)-[1,2,4]triazolo[1,5-a]pyrazin-6-yl)benzonitrile] |  | < 10 nM | < 10 nM |  |  |
| CCNC(=O)c1cc2c(N)nc(-c3cccc(C#N)c3)c(-c3ccc(=O)n(C)c3)n2n1 [Example 3, 4-Amino-6-(3-cyanophenyl)-N-ethyl-7-(1-methyl-6-oxo-1,6-dihydropyridin-3-yl)pyrazolo[1,5-a]pyrazine-2-carboxamide] | < 10 nM | 100 to 1000 nM |  |  |  |
| N#Cc1cccc(-c2nc(N)c3nc(C(O)c4cccc(F)c4F)nn3c2-c2ccncn2)c1 (single isomer, unassigned) [Example 54, 3-(8-Amino-2-((2,3-difluorophenyl)(hydroxy)methyl)-5-(pyrimidin-4-yl)-[1,2,4]triazolo[1,5-a]pyrazin-6-yl)benzonitrile] |  |  |  | < 10 nM | < 10 nM |
| Cc1cnccc1-c1c(-c2cccc(C#N)c2)nc(N)c2nc(C(O)c3c(F)cccc3F)nn12 (single isomer, unassigned) [Example 108, 3-(8-amino-2-((2,6-difluorophenyl)(hydroxy)methyl)-5-(3-methylpyridin-4-yl)-[1,2,4]triazolo[1,5-a]pyrazin-6-yl)benzonitrile] |  | < 10 nM | < 10 nM |  |  |
| CN(C)Cc1cccc(F)c1C(O)c1nc2c(N)nc(-c3cccc(C#N)c3)c(-c3ccncn3)n2n1 (single isomer, unassigned) [Example 101, 3-(8-amino-2-((2-((dimethylamino)methyl)-6-fluorophenyl)(hydroxy)methyl)-5-(pyrimidin-4-yl)-[1,2,4]triazolo[1,5-a]pyrazin-6-yl)benzonitrile] |  | < 10 nM |  | < 10 nM |  |
| N#Cc1cccc(-c2nc(N)c3nc(C(O)c4c(F)cccc4CN4CCCC4)nn3c2-c2ccncn2)c1 (single isomer, unassigned) [Example 111, 3-(8-amino-2-((2-fluoro-6-(pyrrolidin-1-ylmethyl)phenyl)(hydroxy)methyl)-5-(pyrimidin-4-yl)-[1,2,4]triazolo[1,5-a]pyrazin-6-yl)benzonitrile] |  | < 10 nM |  | < 10 nM |  |
| Cc1nc(C(C)O)c(-c2c(-c3cccc(C#N)c3)nc(N)c3cc(Cc4ccccn4)nn23)o1 (centres unmarked) [Example 34, 3-(4-Amino-7-(4-(1-hydroxyethyl)-2-methyloxazol-5-yl)-2-(pyridin-2-ylmethyl)pyrazolo[1,5-a]pyrazin-6-yl)benzonitrile] | < 10 nM | 10 to 100 nM |  |  |  |
| CCN(CC)C(=O)c1cc2c(N)nc(-c3cccc(C#N)c3)c(-c3ccncn3)n2n1 [Example 10, 4-Amino-6-(3-cyanophenyl)-N,N-diethyl-7-(pyrimidin-4-yl)pyrazolo[1,5-a]pyrazine-2-carboxamide] | < 10 nM | < 10 nM |  |  |  |
| N#Cc1cccc(-c2nc(N)c3cc(Cc4c[nH]c5cccnc45)nn3c2-c2ccncn2)c1 [Example 96, 3-(2-((1H-pyrrolo[3,2-b]pyridin-3-yl)methyl)-4-amino-7-(pyrimidin-4-yl)pyrazolo[1,5-a]pyrazin-6-yl)benzonitrile] | < 10 nM | 10 to 100 nM |  |  |  |
| Cn1nncc1-c1c(-c2cccc(C#N)c2)nc(N)c2cc(Cc3ccccn3)nn12 [Example 37, 3-(4-Amino-7-(1-methyl-1H-1,2,3-triazol-5-yl)-2-(pyridin-2-ylmethyl)pyrazolo[1,5-a]pyrazin-6-yl)benzonitrile] | < 10 nM | < 10 nM |  |  |  |
